Experimental data as given in paper PMC4467913 (Phytochemistry letters, 2015).

How the values were obtained:
Staphylococcus aureus = test: Growth inhibition assay, S. aureus; assay type: cell-based; settings: highest concentration tested 50 µg/mL
[1] = test system: MDA-MB-435 cancer cell line; test: Cytotoxicity assay, MDA-MB-435; assay type: cell-based, human; settings: highest concentration tested 33 µM
trypsin = test: Protease inhibition assay, trypsin; assay type: biochemical; settings: highest concentration tested 13 µM
elastase = test: Protease inhibition assay, elastase; assay type: biochemical; settings: highest concentration tested 13 µM
chymotrypsin = test: Protease inhibition assay, chymotrypsin; assay type: biochemical; settings: highest concentration tested 13 µM
Escherichia coli = test: Growth inhibition assay, E. coli; assay type: cell-based; settings: highest concentration tested 50 µg/mL
HT-29 cancer cell line = test: Cytotoxicity assay, HT-29; assay type: cell-based, human; settings: highest concentration tested 33 µM
Candida albicans = test: Growth inhibition assay, C. albicans; assay type: cell-based; settings: highest concentration tested 50 µg/mL
[2] = test system: Mycobacterium tuberculosis; settings: highest concentration tested 50 µg/mL
Mycobacterium smegmatis = test: Growth inhibition assay, M. smegmatis; assay type: cell-based; settings: highest concentration tested 50 µg/mL

cyclo[L-Val2-L-Ser-L-Ile-L-Asn-L-Val1-L-Phe-L-Pro-] [Microseiramide (1)]
no activity was observed: growth inhibition (Staphylococcus aureus) | cytotoxicity [1] | protease inhibition (trypsin) | protease inhibition (elastase) | protease inhibition (chymotrypsin) | growth inhibition (Escherichia coli) | cytotoxicity (HT-29 cancer cell line) | growth inhibition (Candida albicans) | growth inhibition [2] | growth inhibition (Mycobacterium smegmatis)
